Measurements published in publication PMC6722648, “Phenazine Derivatives with Anti-Inflammatory Activity from the Deep-Sea Sediment-Derived Yeast-Like Fungus Cystobasidium laryngis IV17-028” (Marine Drugs, 2019).
Where two headings read alike, the source gives them in different places.

Columns and labels:
[1] = system: LPS-induced NO production in RAW 264.7 cells; assay: NO assay: nitrite quantification (Griess) in LPS-stimulated macrophages; type: cell-based, murine; settings: Mus musculus, RAW264.7, LPS 200 ng/mL, 24 h, read-out: EC50 against NO assay
Description: NO2^− accumulation was used as an indicator of NO production as described previously. RAW 264.7 cells were plated at 5 × 10^5 cells/mL, pre-treated with various concentrations (0.3, 1, 3, 10 or 30 μg/mL) of 1–7 and stimulated with LPS (200 ng/mL) for 24 h. The supernatants were mixed with an equal volume of Griess reagent (1% sulfanilamide, 0.1% naphthylethylenediamine dihydrochloride and 2% phosphoric acid) and incubated at room temperature for 10 min. NaNO2 was used to generate a standard curve, and the concentration of nitrite in the medium was determined by measuring optical density at 540 nm. Cell viability was determined by XTT assay as described previously. And it was confirmed that the concentration of compounds used in this study has no significant effect on cell viability.

[2] = Stability to light and on storage (observation)

Row | Structure (SMILES) | EC50 ([1]; compounds 0.3-30 μg/mL) | EC50 [1] | storage stability ([2]; in the dark and fridge) | stability under the light ([2]; under the light) | colour change of yellow needle form in light ([2]; day light as well as fluorescent light, also previously reported [9]) | colour change in hydrophilic solvents under the light ([2]; methanol and dimethyl sulfoxide, under the light)
1 | CC(OC(=O)c1ccccc1N)c1cccc2nc3c(C(=O)O)cccc3nc12 (centres unmarked) [Compound 1, 6-[1-(2-aminobenzoyloxy)ethyl]-1-phenazinecarboxylic acid] | 18.1 µg/mL | 46.8 µM | changelessly stored in the dark and fridge for several weeks | easily changed under the light |  | 
2 | C[C@@H](O)c1cccc2nc3c(C(N)=O)cccc3nc12 [Compound 2, saphenic amide] | > 30 µg/mL |  |  |  |  | 
3 | C[C@@H](O)c1cccc2nc3c([C@@H](C)O)cccc3nc12 [Compound 3, saphenol] | 14.7 µg/mL | 54.7 µM |  |  |  | 
4 | C[C@@H](O)c1cccc2nc3c(C(=O)O)cccc3nc12 [Compound 4, (R)-saphenic acid] | 6.15 µg/mL | 22.9 µM |  |  | turned brown after several hours | quickly turned from yellow into orange
5 | O=C(O)c1cccc2nc3ccccc3nc12 [Compound 5, phenazine-1-carboxylic acid] | 17.1 µg/mL | 76.1 µM |  |  |  | 
6 | CO[C@H](C)c1cccc2nc3c(C(=O)O)cccc3nc12 [Compound 6] | 5.53 µg/mL | 19.6 µM |  |  |  | 
7 | CC(=O)c1cccc2nc3c(C(=O)O)cccc3nc12 [Compound 7, 6-acetyl-phenazine-1-carboxylic acid] | 5.32 µg/mL | 20 µM |  |  |  | 
